Laboratory results: US8026367B2, “(R)-arylalkylamino derivatives and pharmaceutical compositions containing them” (Dompe PHA.R.MA S.p.A., priority 2005, dated 2011)
Counter-ions that a name gives are not always drawn.

What was measured:
[1] = tested on: C5a induced PMN migration; experiment: Inhibition of C5a induced chemotaxis of human PMNs (microchamber assay); type: cell-based; details: compound concentration range between 10^−7 and 10^−8 M, C5a 10^−9 M, 60 min at 37° C.
Protocol: The compounds of the invention of formula (I) were evaluated in vitro for their ability to inhibit chemotaxis of polymorphonucleate leukocytes (hereinafter referred to as PMNs) and monocytes induced by the fractions of the complement C5a and C5a-desArg. For this purpose, to isolate the PMNs from heparinized human blood, taken from healthy adult volunteers, mononucleates were removed by means of sedimentation on dextran (according to the procedure disclosed by W. J. Ming et al., J. Immunol., 138, 1469, 1987) and red blood cells by a hypotonic solution. The cell vitality was calculated by exclusion with Trypan blue, whilst the ratio of the circulating polymorphonucleates was estimated on the cytocentrifugate after staining with Diff Quick.
Human recombinant fractions C5a and C5a-desArg (Sigma) were used as stimulating agents in the chemotaxis experiments, giving practically identical results.
The lyophilized C5a was dissolved in a volume of HBSS containing 0.2% bovin serum albumin BSA so thus to obtain a stock solution having a concentration of 10^−5 M to be diluted in HBSS to a concentration of 10^−9 M, for the chemotaxis assays.
In the chemotaxis experiments, the PMNs were incubated with the compounds of the invention of formula (I) for 15′ at 37° C. in an atmosphere containing 5% CO2.
The chemotactic activity of the C5a was evaluated on human circulating polymorphonucleates (PMNs) resuspended in HBSS at a concentration of 1.5×10^6 PMNs per mL.
During the chemotaxis assay (according to W. Falket et al., J. Immunol. Methods, 33, 239, 1980) PVP-free filters with a porosity of 5 μm and microchambers suitable for replication were used.
The compounds of the invention in formula (I) were evaluated at a concentration ranging between 10^−7 and 10^−10 M; for this purpose they were added, at the same concentration, both to the lower pores and the upper pores of the microchamber. The wells in the lower part contain the solution of C5a or the simple carrier, those in the upper part contain the suspension of PMNs.
Inhibition of C5a-induced chemotactic activity by the individual compounds of the invention of formula (I) was evaluated by incubating the microchamber for the chemotaxis for 60 min at 37° C. in an atmosphere containing 5% CO2.
By way of example, the inhibition data of the chemotaxis of PMN (concentration range between 10^−7 and 10^−8 M) of some representative compounds of the invention are reported in Table 1.

Q: With `CC(C)C(=O)N[C@H](C)c1ccc(OS(=O)(=O)C(F)(F)F)cc1` [Compound 14, 4-[(1R)-1-(isobutyrylamino)ethyl]phenyl trifluoromethanesulfonate] as the compound, how does the “% inhibition C5a induced PMN migration” value [1] read?
A: The value was 60 ± 8%.

Q: For `C[C@@H](NC(=O)CCCN1CCCC1)c1ccc(OS(=O)(=O)C(F)(F)F)cc1` [Compound 20, 4-{(1R)-1-[(4-pyrrolidin-1-ylbutanoyl)amino]ethyl]}phenyl trifluoromethanesulfonate], which “% inhibition C5a induced PMN migration” value [1] is on record?
A: The value was 47 ± 1%.

Q: Which “% inhibition C5a induced PMN migration” value [1] does the source give for `C[C@@H](NC(=O)c1ccco1)c1cccc(C(=O)c2ccccc2)c1` [Compound 17, N-[(1R)-1-(3-benzoylphenyl)ethyl]-2-furamide] here?
A: The value was 63 ± 10%.

Q: For `C[C@@H](NS(=O)(=O)c1ccc(C(=O)O)o1)c1cccc(C(=O)c2ccccc2)c1` [Compound 11, 5-({[(1R)-1-(3-benzoylphenyl)ethyl]amino}sulfonyl)-2-furoic acid], which “% inhibition C5a induced PMN migration” value [1] is on record?
A: The value was 40 ± 4%.

Q: Which “% inhibition C5a induced PMN migration” value [1] does the source give for `C[C@@H](NS(C)(=O)=O)c1ccc(C(C)(C)S(=O)(=O)c2ccccc2)cc1` [Compound 13, N-((1R)-1-{4-[1-methyl-1-(phenylsulfonyl)ethyl]phenyl}ethyl)methanesulfonamide] here?
A: The value was 64 ± 8%.

Q: With `C[C@@H](Nc1nc(C(F)(F)F)cs1)c1cccc(C(=O)c2ccccc2)c1` [Compound 21] as the compound, how does the “% inhibition C5a induced PMN migration” value [1] read?
A: The value was 42 ± 5%.

Q: For `C[C@@H](NS(=O)(=O)c1cccs1)c1cccc(C(=O)c2ccco2)c1` [Compound 5, N-[(1R)-1-[3-(2-furoyl)phenyl]ethyl}thiophene-2-sulfonamide], which “% inhibition C5a induced PMN migration” value [1] is on record?
A: Its value is 60 ± 8%.

Q: What about the melting point of the same compound?
A: The melting point was 105 to 106 °C.

Q: What does the source list for `C[C@@H](NC(=O)C1CCC1)c1cccc(C(=O)c2ccccc2)c1` [Compound 18, N-[(1R)-1-(3-benzoylphenyl)ethyl]cyclobutanecarboxamide]?
A: % inhibition C5a induced PMN migration [1]: 57 ± 4%; melting point: 90 to 93 °C

Q: Which “% inhibition C5a induced PMN migration” value [1] does the source give for `C[C@@H](NC(=O)c1ccccc1)c1cccc(C(=O)c2ccccc2)c1` [Compound 16, N-[(1R)-1-(3-benzoylphenyl)ethyl]benzamide] here?
A: Its value is 49 ± 5 %.

Q: For `C[C@@H](NS(=O)(=O)c1cccs1)c1ccc(OS(=O)(=O)C(F)(F)F)cc1` [Compound 7, 4-{(1R)-1-[(thien-2-ylsulfonyl)amino]ethyl}phenyl trifluoromethanesulfonate], which “% inhibition C5a induced PMN migration” value [1] is on record?
A: The value was 41 ± 8%.

Q: Which “% inhibition C5a induced PMN migration” value [1] does the source give for `CC(C)[C@@H](NS(C)(=O)=O)c1ccc(OS(=O)(=O)C(F)(F)F)cc1` [Compound 12, 4-{(1R)-2-methyl-1-[(methylsulfonyl)amino]propyl}phenyl trifluoromethanesulfonate] here?
A: The value was 40 ± 5%.

Q: With `C[C@@H](NS(C)(=O)=O)c1cccc(C(=O)c2ccco2)c1` [Compound 6, N-[(1R)-1-[3-(2-furoyl)phenyl]ethyl}methanesulfonamide] as the compound, how does the “% inhibition C5a induced PMN migration” value [1] read?
A: Its value is 52 ± 7%.

Q: Which “% inhibition C5a induced PMN migration” value [1] does the source give for `C[C@@H](NS(=O)(=O)c1cccnc1)c1ccc(OS(=O)(=O)C(F)(F)F)cc1` [Compound 3, 4-{(1R)-1-[(pyridine-3-ylsulfonyl)amino]ethyl}phenyl trifluoromethanesulfonate] here?
A: The value was 47 ± 7%.

Q: Which “% inhibition C5a induced PMN migration” value [1] does the source give for `C[C@@H](NS(=O)(=O)c1ccccc1)c1ccc(OS(=O)(=O)C(F)(F)F)cc1` [Compound 1, 4-{(1R)-1-[(phenylsulfonyl)amino]ethyl}phenyl trifluoromethanesulfonate] here?
A: Its value is 50 ± 1 %.

Q: Which “% inhibition C5a induced PMN migration” value [1] does the source give for `C[C@@H](NC(=O)CCCN1CCCCC1)c1ccc(OS(=O)(=O)C(F)(F)F)cc1` [Compound 19, N-[(1R)-1-(4-trifluoromethanesulfonyloxy)phenylethyl]-4-piperidin-1-ylbutanamide] here?
A: The value was 54 ± 17%.

Q: For `C[C@@H](NS(C)(=O)=O)c1cccc(C(=O)c2ccccc2)c1` [Compound 4, N-[(1R)-1-(3-benzoylphenyl)ethyl]methanesulfonamide], which “% inhibition C5a induced PMN migration” value [1] is on record?
A: The value was 48 ± 8%.

Q: Which “% inhibition C5a induced PMN migration” value [1] does the source give for `C[C@@H](NC(=O)c1cccnc1)c1ccc(OS(=O)(=O)C(F)(F)F)cc1` [Compound 15, 4-{[(1R)-1-(pyridine-3-ylcarbonyl)amino]ethyl]}phenyl trifluoromethanesulfonate] here?
A: The value was 46 ± 6%.

Q: Which “% inhibition C5a induced PMN migration” value [1] does the source give for `C[C@@H](NS(=O)(=O)c1cccs1)c1cccc(C(=O)c2ccccc2)c1` [Compound 8, N-[(1R)-1-(3-benzoylphenyl]ethyl}thiophene-2-sulfonamide] here?
A: The value was 55 ± 14%.

Q: Which “% inhibition C5a induced PMN migration” value [1] does the source give for `COC(=O)c1ccc(S(=O)(=O)N[C@H](C)c2cccc(C(=O)c3ccccc3)c2)o1` [Compound 10, methyl 5-({[(1R)-1-(3-benzoylphenyl)ethyl]amino}sulfonyl)-2-furoate] here?
A: Its value is 72 ± 6%.

Q: For `C[C@@H](NS(=O)(=O)c1ccccc1)c1cccc(C(=O)c2ccccc2)c1` [Compound 2, N-[(1R)-1-(3-benzoylphenyl)ethyl]benzenesulfonamide], which “% inhibition C5a induced PMN migration” value [1] is on record?
A: Its value is 59 ± 10%.

Q: For `C[C@@H](NC(=O)c1cccnc1)c1ccc(OS(=O)(=O)C(F)(F)F)cc1` (as salt: methanesulfonate) [Compound 15, 4-{[(1R)-1-(pyridine-3-ylcarbonyl)amino]ethyl]}phenyl trifluoromethanesulfonate], which melting point is on record?
A: Its melting point is 120 to 122 °C.
